# Test results as given in patent US10377770B2 (Novartis AG, priority 2015, dated 2019).
# Molecular target: C-Raf FL (full length CRAF with Y340E and Y341E activating mutations, co-expressed with h14-3-3 zeta) (Homo sapiens (Human), UniProt P04049, Y340E/Y341E)
# Assay: In vitro Raf activity determination, AlphaScreen p-MEK readout, c-Raf (C-Raf FL)
# Type: biochemical
# Conditions: c-Raf approximately 4 nM, ATP 1 μM, pre-incubation 60 minutes, reaction 1 hour
# Method in brief: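 Full-length C-Raf (~4 nM) pre-incubated 60 min at room temperature with compound and kinase-dead biotinylated MEK1 (~10 nM) in Tris pH 7.5, 15 mM MgCl2, BSA, DTT. Reaction started with 1 μM ATP and run 1 h at room temperature. Phospho-MEK detected by AlphaScreen with anti-p-MEK antibody.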
# C-Raf FL (full length CRAF with Y340E and Y341E activating mutations, co-expressed with h14-3-3 zeta), sequence (P04049 whole entry Y340E/Y341E): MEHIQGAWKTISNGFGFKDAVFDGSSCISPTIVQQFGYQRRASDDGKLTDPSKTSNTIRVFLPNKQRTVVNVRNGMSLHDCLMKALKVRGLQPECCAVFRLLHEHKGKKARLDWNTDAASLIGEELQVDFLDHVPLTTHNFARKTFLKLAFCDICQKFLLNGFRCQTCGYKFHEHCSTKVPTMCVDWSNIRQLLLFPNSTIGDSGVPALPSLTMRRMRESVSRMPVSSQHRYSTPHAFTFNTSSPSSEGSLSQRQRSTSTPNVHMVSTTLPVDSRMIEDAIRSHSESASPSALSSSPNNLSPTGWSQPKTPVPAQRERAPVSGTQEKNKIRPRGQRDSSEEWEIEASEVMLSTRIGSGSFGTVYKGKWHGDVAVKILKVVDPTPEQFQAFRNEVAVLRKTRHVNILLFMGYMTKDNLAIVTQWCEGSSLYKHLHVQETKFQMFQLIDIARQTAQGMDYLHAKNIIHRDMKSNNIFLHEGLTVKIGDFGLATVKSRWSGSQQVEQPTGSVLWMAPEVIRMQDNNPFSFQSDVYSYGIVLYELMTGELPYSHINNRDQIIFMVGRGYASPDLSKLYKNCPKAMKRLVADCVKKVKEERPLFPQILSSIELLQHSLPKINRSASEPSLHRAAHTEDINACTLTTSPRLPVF
# C-Raf FL (full length CRAF with Y340E and Y341E activating mutations, co-expressed with h14-3-3 zeta), sequence (P63104 whole entry partner): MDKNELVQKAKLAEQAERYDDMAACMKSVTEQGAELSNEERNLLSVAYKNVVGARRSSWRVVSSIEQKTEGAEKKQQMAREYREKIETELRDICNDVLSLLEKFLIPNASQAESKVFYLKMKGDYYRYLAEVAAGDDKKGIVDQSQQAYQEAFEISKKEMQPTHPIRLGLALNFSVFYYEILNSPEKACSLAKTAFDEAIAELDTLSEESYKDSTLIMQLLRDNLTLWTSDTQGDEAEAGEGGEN
row,SMILES,IC50 [nM]
1,"Cc1ccc(NC(=O)c2ccnc(C(C)(C)C#N)c2)cc1-c1cnc2c(c1)N1CCOC[C@H]1C[C@@H]2O (racemic) [Example 149, rac-cis-2-(2-cyanopropan-2-yl)-N-(3-(6-hydroxy-1,2,4,4a,5,6-hexahydro-[1,4]oxazino[4,3-a][1,5]naphthyridin-9-yl)-4-methylphenyl)isonicotinamide]",0.013
2,"CCN1C[C@@H]2COCCN2c2cc(-c3cc(NC(=O)c4cccc(C(F)(F)F)c4)cnc3C)cnc2C1=O [Example 501, (R)-N-(5-(6-ethyl-7-oxo-1,2,4a,5,6,7-hexahydro-4H-[1,4]oxazino[4,3-a]pyrido[2,3-f][1,4]diazepin-10-yl)-6-methypyridin-3-yl)-3-(trifluoro-methyl)benzamide]",0.2
3,"Cc1ccc(NC(=O)c2ccnc(C(C)(F)F)c2)cc1-c1cnc2c(c1)N1CCOC[C@H]1[C@@H](CO)C2 [Example 492, 2-(1,1-difluoroethyl)-N-(3-((4aR,5S)-5-(hydroxymethyl)-1,2,4,4a,5,6-hexahydro-[1,4]oxazino[4,3-a][1,5]naphthyridin-9-yl)-4-methylphenyl)iso-nicotinamide]",0.2
4,"Cc1ccc(NC(=O)c2ccnc(C(F)(F)F)c2)cc1-c1cnc2c(c1)N1CCOC[C@@H]1C(F)(F)[C@@H]2O [Example 168, N-(3-((4aR,6R)-5,5-difluoro-6-hydroxy-1,2,4,4a,5,6-hexahydro-[1,4]oxazino[4,3-a][1,5]naphthyridin-9-yl)-4-methylphenyl)-2-(trifluoromethyl)isonicotinamide]",0.77
5,"CCN1C(=O)C2CCOCCC2c2cc(-c3cc(NC(=O)c4ccnc(C(F)(F)F)c4)ccc3C)cnc21 (stereo not drawn) [Example 247, N-(3-((5a, 11b-cis)-7-ethyl-6-oxo-1,2,4,5,5a,6,7,11b-octahydrooxepino 4,5-c][1,8]naphthyridin-10-yl)-4-methylphenyl)-2-(trifluoromethyl) isonicotinamide]",0.3
